Where two headings read alike, the source gives them in different places. Blank lines part the entries; values can stand above or below the molecule they belong to.
Assays:
[1] = tested on: P. vivax or P. falciparum; conditions: cited from earlier work
[2] = Dog study of lumefantrine-SDF and KAF156 alone and co-dosed (Example 6); assay type: in vivo; conditions: for Cmax / AUC(0-inf) / AUC(0-t) / half-life / Tmax: po, 100 mg; for AUC(0-inf): read-out: AUCinf, Mean; for AUC(0-t): read-out: AUClast, Mean; for half-life: read-out: T½, Mean (converted)
Experimental: The study design is described in the table below. To stimulate gastric secretion, each animal (dog) received a single 6-μg/kg intramuscular injection of pentagastrin approximatively 60 minutes prior to test article administration. Washout between each treatment was approximatively 7-8 days. [table]

Plasmodium = conditions: causal prophylactic protection in animal infection models; cited from earlier work
P. falciparum = conditions: in vitro; cited from earlier work
liver hypnozoites = conditions: cited from earlier work
[3] = tested on: drug-sensitive and a broad panel of drug resistant malaria strains; conditions: cited from earlier work
P. vivax = conditions: in vitro; cited from earlier work
[4] = assay type: in vitro ADME
Experimental: Lumefantrine concentration was determined by a validated Liquid chromatography-Mass spectrometry (LC-MS/MS) method with a Lower Limit of Quantification (LLOQ) of 50 ng/mL. Briefly, the bioanalytical method consisted of protein precipitation followed by solid phase extraction of human plasma samples and analysis of diluted samples by LC-MS/MS in Multiple Reaction Monitoring (MRM) positive mode using Electrospray Ionization (ESI) as the ionization technique. The lower and upper limits of quantification for linear range were 50.0 ng/mL and 20000 ng/mL respectively using […] of human plasma. Lumefantrine in human plasma is stable for 44 hours at room temperature; 9 months at ≤−70° C.; 3 freeze/thaw cycles at ≤−70° C. The extract is stable for 100 hours in an autosampler at 8° C. The stability data could cover the period from sampling to analysis of all study samples. For eight points calibration concentrations (50, 100, 200, 500, 2000, 5000, 16000 and 20000 ng/mL) bias was within the range of 15.0% at all concentrations except for LLOQ (50 ng/mL) for which it was within the range of 20.0%. For quality control samples (150 ng/mL, 2500 ng/mL and 15000 ng/mL) bias was within the range of 15.0% for at least ⅔ of the individual values.

[5] = cited from earlier work
[6] = P. falciparum malaria, multiple-dose cohort
[7] = Dog 3 (emesis after dosing in Phase 5)
[8] = dog, in vivo, Phase 2 (Combo), dog
[9] = dog, in vivo, Phase 5 (Mono), dog

- AUCinf Ratio (Phase 2:Phase 5) ([2]; Dog 1): 2.6
- AUClast Ratio (Phase 2:Phase 5) ([2]; Dog 1): 2.7
- Cmax Ratio (Phase 2:Phase 5) ([2]; Dog 1): 2.6
- AUCinf Ratio (Phase 2:Phase 5) ([2]; Dog 2): 2.8
- AUClast Ratio (Phase 2:Phase 5) ([2]; Dog 2): 2.9
- Cmax Ratio (Phase 2:Phase 5) ([2]; Dog 2): 2.5
- AUCinf Ratio (Phase 2:Phase 5) ([2]; Mean): 3.6
- AUClast Ratio (Phase 2:Phase 5) ([2]; Mean): 3.6
- Cmax Ratio (Phase 2:Phase 5) ([2]; Mean): 2.8
- Cmax ([2]; dog, in vivo, Phase 2 (Combo)): 1200 ng/mL
- AUC(0-inf) [2, 8]: 45400 ng·h/mL
- AUC(0-t) [2, 8]: 36700 ng·h/mL
- half-life ([2]; dog, in vivo, Phase 2 (Combo), with Lumefantrine-SDF sachet, dog): 31 h
- Tmax ([2]; dog, in vivo, Phase 2 (Combo), Tmax 1, 1, 8 hr in 3 dogs): 3.3 h
- Cmax ([2]; dog, in vivo, Phase 5 (Mono)): 451 ng/mL
- Tmax ([2]; dog, in vivo, Phase 5 (Mono)): 1 h
- AUC(0-inf) [2, 9]: 14400 ng·h/mL
- AUC(0-t) [2, 9]: 11600 ng·h/mL
- half-life [2, 9]: 33.2 h
SMILES: CC1(C)c2nc(-c3ccc(F)cc3)c(Nc3ccc(F)cc3)n2CCN1C(=O)CN [KAF156, 2-amino-1-(2-(4-fluorophenyl)-3-(4-fluorophenylamino)-8,8-dimethyl-5,6-dihydroimidazo[1,2-a]pyrazin-7(8H)-yl)ethanone]
- serious adverse events ([1]; 400 mg/day for 3 days or single 800 mg): No serious adverse event was reported
- patients who reported nausea [1, 6]: 1 patient
- patients who vomited [1, 6]: 1 patient
- activity against vivax and falciparum malaria, including artemisinin-resistant parasites ([1]; malaria patients): has activity
- half-life ([1]; malaria patients): about 50 hours
- patients who vomited ([1]; single 800-mg dose, besides one withdrawn for repeated vomiting): Five
- patients who reported nausea ([1]; single 800-mg dose): Four
- AUCinf Ratio (Phase 2:Phase 5) [2, 7]: 5.3
- AUClast Ratio (Phase 2:Phase 5) [2, 7]: 5.2
- Cmax Ratio (Phase 2:Phase 5) [2, 7]: 3.3
- activity in liver stage models of Plasmodium infection (Plasmodium): has shown activity
- EC50, erythrocytic replication life cycle stages (blood stages) (P. falciparum): low nanomolar
- activity against liver hypnozoites (liver hypnozoites): has not demonstrated activity
- potency against drug-sensitive versus drug resistant malaria strains [3]: equally potent
- EC50, erythrocytic replication life cycle stages (blood stages) (P. vivax): low nanomolar

- stability of the extract ([4]; human, 100 hours): 100 h
- stability in human plasma ([4]; plasma, 44 hours): 44 h
- increase of lumefantrine exposure when administered together with KAF156 ([2]; dog, in vivo): around 1.5 fold
SMILES: CCCCN(CCCC)CC(O)c1cc(Cl)cc2c1-c1ccc(Cl)cc1/C2=C/c1ccc(Cl)cc1 (stereo not drawn) [Lumefantrine, lumefantrine]
- increase of bioavailability by food ([5]; in vivo): up to 16 fold

SMILES: CO[C@H]1O[C@@H]2O[C@@]3(C)CC[C@H]4[C@H](C)CC[C@@H]([C@H]1C)[C@@]24OO3 [artemether]
- increase of bioavailability by food ([5]; Coartem administered with high fat food): up to 3 fold

— patent US12616700B2, “Therapeutic regimen” (Novartis AG, priority 2017, dated 2026)
